Test results: ChEMBL document CHEMBL1201862, “PubChem BioAssay data set” (2004)
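Step 1: Grow cells in 96-well plates. Step 2: Expose to compound for 48 hours at 5 concentrations. Step 3: Interpolate endpoints linearly; if unreached, use highest concentration. At the GI50, growth is halved.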 Activity calls are given as the source filed them. Cut-off read from the data, not from the text of the source: active = GI50 up to about 1.1 µM and inactive = higher.

Tests used:
Test in all cases: DTP human tumour cell line panel, 48 h
[1] = tested on: A549
[2] = tested on: ACHN
[3] = tested on: K562
[4] = tested on: KM12
[5] = tested on: MDA-N
[6] = tested on: MOLT-4
[7] = tested on: Malme-3M
[8] = tested on: NCI-H226
[9] = tested on: NCI-H460
[10] = tested on: NCI-H522
[11] = tested on: NCI/ADR-RES
[12] = tested on: OVCAR-3
[13] = tested on: OVCAR-5
[14] = tested on: SF-295
[15] = tested on: SK-MEL-28
[16] = tested on: SK-MEL-5
[17] = tested on: SK-OV-3
[18] = tested on: SNB-75
[19] = tested on: SW-620
[20] = tested on: UACC-257

Measured: GI50

O=[N+]([O-])c1ccc(-n2nc3ccc4c(no[n+]4[O-])c3n2)cc1
inactive: [1] 12.4 µM | [2] 7.11 µM | [3] > 100 µM | [4] > 100 µM | [5] > 100 µM | [6] 74.6 µM | [7] > 100 µM | [8] > 100 µM | [9] 33.2 µM | [10] > 100 µM | [11] > 100 µM | [12] > 100 µM | [13] > 100 µM | [14] > 100 µM | [15] > 100 µM | [16] 80.2 µM | [17] > 100 µM | [18] 61.7 µM | [19] > 100 µM | [20] > 100 µM

c1ccc2c(c1)-c1nc3ccccc3cc1C2N1CCOCC1 (centres undefined)
inactive: [1] > 100 µM | [2] > 100 µM | [3] > 100 µM | [4] > 100 µM | [5] > 100 µM | [6] 57.9 µM | [7] > 100 µM | [8] > 100 µM | [10] 43.5 µM | [11] 81.3 µM | [12] > 100 µM | [13] > 100 µM | [14] > 100 µM | [15] > 100 µM | [16] 82.4 µM | [17] > 100 µM | [18] > 100 µM | [19] > 100 µM | [20] > 100 µM

CN(C)Cc1cc(C(C)(C)C)ccc1-c1ccc(C(C)(C)C)cc1CN(C)C
inactive: [1] > 100 µM | [2] > 100 µM | [3] 40.7 µM | [4] > 100 µM | [5] > 100 µM | [6] > 100 µM | [7] 51.9 µM | [8] > 100 µM | [9] 96.8 µM | [10] 57.8 µM | [11] > 100 µM | [12] 43.3 µM | [13] > 100 µM | [14] > 100 µM | [15] 41.1 µM | [16] > 100 µM | [17] > 100 µM | [18] 88.1 µM | [19] > 100 µM | [20] 37.1 µM

O=C1OCC2=C1C(c1ccc3c(c1)OCO3)c1cc3c(cc1O2)OCO3 (centres undefined)
inactive: [2] 3.27 µM | [7] 3.1 µM | [8] 5.14 µM | [12] 2.72 µM | [13] 7.48 µM | [14] 3.03 µM | [15] 1.72 µM | [20] 5.13 µM
active: [1] 0.897 µM | [3] 0.269 µM | [5] 0.0782 µM | [6] 0.374 µM | [9] 0.522 µM | [10] 0.262 µM | [11] 0.255 µM | [16] 0.486 µM | [17] 0.776 µM | [18] 0.5 µM | [19] 0.406 µM

ClCCCSSCCCCl
inactive: [1] 38.6 µM | [2] 43.8 µM | [3] 25.8 µM | [4] 32.3 µM | [5] 19.9 µM | [6] 2.06 µM | [7] 32.3 µM | [8] > 79.4 µM | [9] 35.6 µM | [10] 25.9 µM | [11] 34.4 µM | [12] 36.6 µM | [13] > 91.6 µM | [14] 37.5 µM | [15] 45 µM | [16] 37.8 µM | [17] 44 µM | [18] 37.8 µM | [19] 27.7 µM | [20] 36.8 µM

OC1[C@@H]2[C@@H](O)[C@H](O)[C@@H](O)N2C[C@@H]1O (some centres undefined)
inactive: [1] > 100 µM | [2] > 100 µM | [3] > 100 µM | [4] > 100 µM | [5] > 100 µM | [6] > 100 µM | [7] > 100 µM | [8] > 100 µM | [9] > 100 µM | [10] > 100 µM | [11] > 100 µM | [12] > 100 µM | [13] > 100 µM | [14] > 100 µM | [15] > 100 µM | [16] > 100 µM | [17] > 100 µM | [18] > 100 µM | [19] > 100 µM | [20] > 100 µM

COc1ccc(/C=N/c2c(O)ccc3ccccc23)cc1OC
inactive: [1] 54.6 µM | [2] > 100 µM | [3] 47.1 µM | [4] > 100 µM | [5] 17.1 µM | [7] 14.5 µM | [8] > 100 µM | [9] 80.9 µM | [10] 15.6 µM | [11] > 100 µM | [12] 5.14 µM | [13] > 100 µM | [14] 63.7 µM | [15] > 100 µM | [16] 56.2 µM | [17] > 100 µM | [18] 47.2 µM | [19] > 100 µM | [20] 80.5 µM

COc1cc2[nH]c3c(c2cc1OC)CCN[C@@]31CC[C@@]2(CC3c4c(cc(OC)c(O)c42)CCN3C)C[C@@H]1OC (some centres undefined)
inactive: [1] 63 µM | [2] 46 µM | [3] 20.7 µM | [4] 42.6 µM | [5] 18.7 µM | [6] 23.4 µM | [7] 18.5 µM | [8] 46.5 µM | [9] 39.4 µM | [10] 29.2 µM | [11] 48.8 µM | [12] 53.2 µM | [13] > 73.3 µM | [14] 21.2 µM | [15] 17.9 µM | [16] 16.5 µM | [17] 73.6 µM | [18] 18.3 µM | [19] 32.8 µM | [20] 17.8 µM

CCOC(=O)c1sc2c(c1OC(=O)c1cccs1)c(=O)n(-c1ccccc1)c(=S)n2-c1ccccc1
inactive: [1] 12.3 µM | [2] 15.8 µM | [3] 19.9 µM | [4] 16.1 µM | [5] 30.5 µM | [6] 10.7 µM | [7] 12.9 µM | [8] 20.5 µM | [9] 3.63 µM | [10] 4.69 µM | [11] 11.1 µM | [12] 24.7 µM | [13] 22.6 µM | [14] 53.2 µM | [15] 11.8 µM | [16] 13.5 µM | [17] 18.2 µM | [18] 83.6 µM | [19] 19.3 µM | [20] 27.4 µM

CCOC(=O)c1sc(N)nc1N1CCCC1
inactive: [1] > 100 µM | [2] > 100 µM | [3] > 100 µM | [4] > 100 µM | [5] > 100 µM | [6] > 100 µM | [7] > 100 µM | [8] > 100 µM | [9] > 100 µM | [10] > 100 µM | [11] > 100 µM | [12] > 100 µM | [13] > 100 µM | [14] > 100 µM | [15] > 100 µM | [16] > 100 µM | [17] > 100 µM | [18] > 100 µM | [19] > 100 µM | [20] > 100 µM

CN(/N=C/c1ccc(C(=O)O)cc1)C1=NCCCCN1
inactive: [1] > 100 µM | [2] > 100 µM | [3] > 100 µM | [4] > 100 µM | [5] > 100 µM | [6] > 100 µM | [7] > 100 µM | [8] > 100 µM | [9] > 100 µM | [10] > 100 µM | [11] > 100 µM | [12] > 100 µM | [13] > 100 µM | [14] > 100 µM | [15] > 100 µM | [16] > 100 µM | [17] > 100 µM | [18] 98.9 µM | [20] > 100 µM

O=C(O)CCC(O)=C1S(=O)(=O)OCCOS1(=O)=O
inactive: [1] > 100 µM | [2] > 100 µM | [3] > 100 µM | [4] > 100 µM | [5] > 100 µM | [6] > 100 µM | [7] > 100 µM | [8] > 100 µM | [9] > 100 µM | [10] > 100 µM | [11] > 100 µM | [12] > 100 µM | [13] > 100 µM | [14] > 100 µM | [15] > 100 µM | [16] > 100 µM | [17] > 100 µM | [18] > 100 µM | [19] > 100 µM | [20] > 100 µM

O=[N+]([O-])c1ccc(/N=N\c2c(O)c(S(=O)(=O)O)cc3cc(S(=O)(=O)O)ccc23)cc1
inactive: [1] > 100 µM | [2] > 100 µM | [3] > 100 µM | [5] > 100 µM | [6] > 100 µM | [7] > 100 µM | [8] > 100 µM | [9] > 100 µM | [10] > 100 µM | [11] > 100 µM | [12] 27 µM | [13] > 100 µM | [14] > 100 µM | [15] > 100 µM | [16] > 100 µM | [17] > 100 µM | [18] > 100 µM | [19] > 100 µM | [20] > 100 µM

COC(=O)OC[C@H]1O[C@@H](n2cc(C)c(=O)[nH]c2=O)CC1OC(=O)OC (some centres undefined)
inactive: [1] > 100 µM | [2] > 100 µM | [3] > 100 µM | [4] > 100 µM | [5] > 100 µM | [6] > 100 µM | [7] > 100 µM | [8] > 100 µM | [9] > 100 µM | [10] > 100 µM | [11] > 100 µM | [12] > 100 µM | [13] > 100 µM | [14] > 100 µM | [15] > 100 µM | [16] > 100 µM | [17] > 100 µM | [18] 95.3 µM | [19] > 100 µM
